In patent US5189044A, “Isoquinoline-1,3-dione acetyl carbamates useful as aldose reductase inhibitors” (American Home Products Corporation, priority 1992, dated 1993):

Tests used:
aldose reductase = settings: 10^-5 M; aldose reductase from bovine lens
Procedure: (c) The polyol determination was performed by a modification of the procedure of M. Kraml and L. Cosyns, Clin. Biochem., 2,373 (1969). Only two minor reagent changes were made: (a) The rinsing mixture was an aqueous 5% (w/v) trichloroacetic acid solution and (b) the stock solution was prepared by dissolving 25 mg of dulcitol in 100 ml of an aqueous trichloroacetic acid solution. [N.B.: For each experiment the average value found in the tissue from rats fed the glucose diet was subtracted from the individual values found in the corresponding tissue in galactose-fed rats to obtain the amount of polyol accumulated.] […] In the present case the procedure of Hayman and Kinoshita was modified in that the final chromatography step was omitted in the preparation of the enzyme from bovine lens.

[1] = test system: dulcitol accumulation in the sciatic nerve; assay: galactosemic rats, dulcitol (galactitol) accumulation in sciatic nerve; type: in vivo, rat (Sprague-Dawley); settings: 4 days, vs untreated galactosemic rats
Text: (§1) The aldose reductase inhibiting property of the compounds of this invention and the utilization of the compounds in preventing, diminishing and alleviating diabetic complications are demonstrable in experiments using galactosemic rats, see Dvornik et al., Science, 182, 1146 (1973). Such experiments are exemplified hereinbelow after the listing of the following general comments pertaining to these experiments:
(§2) (a) Four or more groups of six male rats, 50-70 g, Sprague-Dawley strain, were used. The first group, the control group, was fed a mixture of laboratory chow (Rodent Laboratory Chow, Purina) and glucose at 20% (w/w %) concentration. The untreated galactosemic group was fed a similar diet in which galactose is substituted for glucose. The third group was fed a diet prepared by mixing a given amount of the test compound with the galactose containing diet. The concentration of the galactose in the diet of the treated groups was the same as that for the untreated galactosemic group.
(§3) (b) After four days, the animals were killed by euthanization. The lenses were removed from the eyes and weighed. The sciatic nerves were dissected as completely as possible and weighed. Both tissues when frozen can be kept up to two weeks before being analyzed for dulcitol.
(§4) The figures under N and D represent the percentage decrease of dulcitol accumulation in the tissues of the sciatic nerve and diaphragm, respectively, for treated rats as compared to untreated rats.

[2] = test system: dulcitol accumulation in the diaphragm; assay: galactosemic rats, dulcitol (galactitol) accumulation in diaphragm; type: in vivo, rat (Sprague-Dawley); settings: 4 days, vs untreated galactosemic rats
Text: as §1, §2, §3, §4

% Inhibition in vitro (aldose reductase) [%] | SMILES | % Lowering Galacitol Accumulation in Vivo, Sciatic Nerve ([1]; 49.3 mg/kg/day in diet) [%] | % Lowering Galacitol Accumulation in Vivo, Sciatic Nerve ([1]; 93.6 mg/kg/day in diet) [%] | % Lowering Galacitol Accumulation in Vivo, Diaphragm ([2]; 49.3 mg/kg/day in diet) [%] | % Lowering Galacitol Accumulation in Vivo, Diaphragm ([2]; 93.6 mg/kg/day in diet) [%] | % Lowering Galacitol Accumulation in Vivo, Sciatic Nerve ([1]; 48.8 mg/kg/day in diet) [%] | % Lowering Galacitol Accumulation in Vivo, Sciatic Nerve ([1]; 96.6 mg/kg/day in diet) [%] | % Lowering Galacitol Accumulation in Vivo, Diaphragm ([2]; 48.8 mg/kg/day in diet) [%] | % Lowering Galacitol Accumulation in Vivo, Diaphragm ([2]; 96.6 mg/kg/day in diet) [%]
83 | COC(=O)NC(=O)CC1C(=O)N(Cc2nc3cc(C(F)(F)F)ccc3s2)C(=O)c2ccc(F)cc21 (stereo not shown) [F] | 39 | 59 | 74 | 81 |  |  |  | 
95 | COC(=O)NC(=O)CC1C(=O)N(Cc2nc3cc(C(F)(F)F)ccc3s2)C(=O)c2ccccc21 (stereo not shown) [H] |  |  |  |  | 61 | 73 | 81 | 87
